# Experimental data: article PMC10584170, “Machine learning-based phenotypic imaging to characterise the targetable biology of Plasmodium falciparum male gametocytes for the development of transmission-blocking antimalarials” (PLOS Pathogens, 2023)
# Like-named read-outs stand apart in the source and are kept apart here.
# Assays:
# [1] = test system: P. falciparum female gametocytes; test: P. falciparum Dual Gamete Formation Assay (PfDGFA), female readout (Pfs25-positive female gametes); format: cell-based, Plasmodium falciparum NF54; settings: for Selectivity ratio F: HepG2 Tox50 versus female IC50; for inhibition at 2 µM / IC50: Plasmodium falciparum; for inhibition at 2 µM: 24h preincubation with gametocytes; for IC50: PfDGFA, 24 h incubation with gametocytes before induction, female gamete readout, read-out: Female IC50
# Experimental: (§1) P. falciparum NF54 (originally isolated from an imported malaria case in the Netherlands in the 1980s; BEI Resources, cat. No. MRA-1000) strain asexual parasites were maintained between 0.3–5% parasitaemia by regular passage in complete culture medium (RPMI supplemented with 25 mM HEPES, 50 μg ml^−1 hypoxanthine, 4.8 g l^−1 NaHCO3, 2mM L-glutamine, 5% pooled type AB serum, 0.5% Albumax II (Gibco)) at 4% haematocrit in washed whole blood (National Blood and Transfusion Service or Centro de Transfusiones de la Comunidad de Madrid CTCM) under a 1% O2/3% CO2/96% N2 environment. Gametocytes were induced by seeding culture flasks at 2% parasitaemia/4% haematocrit and subjecting them to daily medium changes for 14 days whilst maintaining a temperature of 37°C at all times. On Day 14, the maturity of gametocytes was assessed by quantifying male gametogenesis (exflagellation). A 20 μl sample of gametocyte culture was mixed with equal volume of ookinete medium (complete culture medium supplemented with 0.1 μM xanthurenic acid) at room temperature and transferred to a haemocytometer. After 20 min at room temperature, exflagellation was accurately quantified as described in Delves et al. 2016 [17].
# (§2) The Pf DGFA was performed as described in Delves et al. 2016 [17]. […] Plates were then incubated for 24 h at 37°C in a humidified box under a 1% O2/3% CO2/96% N2 gas mix. Gametogenesis was triggered by addition of 10 μl per well of ookinete medium + 0.27 μg ml^-1 Cy3-labelled anti-Pfs25 antibody. Plates were incubated on a metal block at 4°C for 4 min to ensure even cooling, then 28°C for a further 4 min. Exflagellation was recorded by capturing 10 frames over 1 s under brightfield illumination using a x4 objective with a 1.5x zoom (effectively x6) attached to an automated Nikon Ti fluorescence microscope. After recording exflagellation, plates were incubated for a further 24 h in the dark at 28°C to ensure maximal expression of Pfs25 by female gametes. The plates were then returned to the microscope and female gametes imaged at x6 using fluorescence microscopy.
# (§3) Exflagellation centres and female gametes were quantified using custom image analysis pipelines developed within ICY Bioimage Analysis (https://icy.bioimageanalysis.org/).
# [2] = test system: P. falciparum male gametocytes; test: P. falciparum Dual Gamete Formation Assay (PfDGFA), male readout (exflagellation); format: cell-based, Plasmodium falciparum NF54; settings: for Activity: hit = >50% inhibition in male or female readout in at least 3 replicates, 0 = no class assigned; for Selectivity Ratio M: HepG2 Tox50 versus male IC50; for inhibition at 2 µM / IC50: Plasmodium falciparum; for inhibition at 2 µM: 24h preincubation with gametocytes; for IC50: PfDGFA, 24 h incubation with gametocytes before induction, exflagellation readout, read-out: Male IC50
# Experimental: as §1, §2, §3
# [3] = 2µM, 24h preincubation with gametocytes prior to induction of gametogenesis, average of replicates
# [4] = 2µM, 24h preincubation with gametocytes prior to induction of gametogenesis, replicate R1
# [5] = 2µM, 24h preincubation with gametocytes prior to induction of gametogenesis, replicate R3
# [6] = 2µM, 24h preincubation with gametocytes prior to induction of gametogenesis, replicate R4
# [7] = 2µM, 24h preincubation, hits selected on >50% inhibition in the female readout across replicates
# [8] = 2µM, 24h preincubation, hits selected on >50% inhibition in the male readout across replicates
# [9] = PfDGFA at 2µM, 24h preincubation
# [10] = PfDGFA at 2µM, 24h preincubation with gametocytes prior to induction of gametogenesis, replicate R1
# [11] = PfDGFA at 2µM, 24h preincubation with gametocytes prior to induction of gametogenesis, replicate R3
# [12] = PfDGFA at 2µM, 24h preincubation with gametocytes prior to induction of gametogenesis, replicate R4
# [13] = PfDGFA at 2µM, 24h preincubation, average of replicates
compound,measurement,setting,value
CNCCCNCc1ccc(-c2ccc(F)c(Cl)c2)o1.Cl [TCMDC-125237],Average inhibition female (%),[1]; [3],13.7%
same,% inhibition female (individual replicates) R1,[1]; [4],17.7%
same,% inhibition female (individual replicates) R3,[1]; [5],9.1%
same,% inhibition female (individual replicates) R4,[1]; [6],15.1%
same,HitlevelF,[1]; [7],0
same,Average inhibition male (%),[2]; [3],15.1%
same,% inhibition male (individual replicates) R1,[2]; [4],6.0%
same,% inhibition male (individual replicates) R4,[2]; [6],19.5%
same,HitlevelM,[2]; [8],0
same,Activity,[2]; [9],0
COCCn1c(Sc2ncnc3sccc23)nc2ccccc21 [TCMDC-125258],Selectivity ratio F,[1],94.48
same,inhibition at 2 µM,"[1]; PfDGFA at 2µM, average of replicates, read-out: Average inhibition female (%)",60.4%
same,inhibition at 2 µM,"[1]; PfDGFA at 2µM, replicate R1, read-out: % inhibition female (individual replicates) R1",48.4%
same,inhibition at 2 µM,"[1]; PfDGFA at 2µM, replicate R2, read-out: % inhibition female (individual replicates) R2",75.4%
same,inhibition at 2 µM,"[1]; PfDGFA at 2µM, replicate R3, read-out: % inhibition female (individual replicates) R3",37.4%
same,inhibition at 2 µM,"[1]; PfDGFA at 2µM, replicate R4, read-out: % inhibition female (individual replicates) R4",80.3%
same,IC50,[1],1060 nM
same,HitlevelF,"[1]; number of replicates with >50% inhibition in the female readout, 2µM",2
same,Selectivity Ratio M,[2],81.39
same,inhibition at 2 µM,"[2]; PfDGFA at 2µM, average of replicates, read-out: Average inhibition male (%)",69.9%
same,inhibition at 2 µM,"[2]; PfDGFA at 2µM, replicate R1, read-out: % inhibition male (individual replicates) R1",86.4%
same,inhibition at 2 µM,"[2]; PfDGFA at 2µM, replicate R2, read-out: % inhibition male (individual replicates) R2",73.7%
same,inhibition at 2 µM,"[2]; PfDGFA at 2µM, replicate R3, read-out: % inhibition male (individual replicates) R3",49.8%
same,inhibition at 2 µM,"[2]; PfDGFA at 2µM, replicate R4, read-out: % inhibition male (individual replicates) R4",69.6%
same,IC50,[2],1230 nM
same,HitlevelM,"[2]; number of replicates with >50% inhibition in the male readout, 2µM",3
NC(=O)c1ccsc1NC(=O)CNC(c1ccccc1)c1ccc(Cl)cc1 (stereo not shown) [TCMDC-125330],% inhibition female (individual replicates) R1,[1]; [10],0.32%
same,% inhibition female (individual replicates) R3,[1]; [11],-9.3%
same,% inhibition female (individual replicates) R4,[1]; [12],6.9%
same,Average inhibition female (%),[1]; [13],1.5%
same,% inhibition male (individual replicates) R1,[2]; [10],-5.4%
same,% inhibition male (individual replicates) R3,[2]; [11],-28.2%
same,% inhibition male (individual replicates) R4,[2]; [12],-28.5%
same,Average inhibition male (%),[2]; [13],-19.7%
O=C(Nc1nc(-c2ccccn2)cs1)c1ccc(S(=O)(=O)N2CCc3ccccc32)cc1 [TCMDC-125432],Average inhibition female (%),[1]; [3],23.2%
same,% inhibition female (individual replicates) R1,[1]; [4],27.4%
same,% inhibition female (individual replicates) R3,[1]; [5],14.7%
same,% inhibition female (individual replicates) R4,[1]; [6],30.9%
same,HitlevelF,"[1]; 2µM, 24h preincubation, number of replicates with >50% inhibition in the female readout",0
same,Average inhibition male (%),[2]; [3],-21.9%
same,% inhibition male (individual replicates) R1,[2]; [4],-19.8%
same,% inhibition male (individual replicates) R3,[2]; [5],-49.6%
same,% inhibition male (individual replicates) R4,[2]; [6],-25.8%
same,HitlevelM,"[2]; 2µM, 24h preincubation, number of replicates with >50% inhibition in the male readout",0
COc1ccc(-c2csc3nc(C)nc(Cl)c23)cc1OC [TCMDC-125523],Average inhibition female (%),[1]; [3],3.7%
same,% inhibition female (individual replicates) R1,[1]; [4],4.5%
same,% inhibition female (individual replicates) R3,[1]; [5],-29.0%
same,% inhibition female (individual replicates) R4,[1]; [6],16.0%
same,HitlevelF,[1]; [7],0
same,Average inhibition male (%),[2]; [3],-3.5%
same,% inhibition male (individual replicates) R1,[2]; [4],-8.3%
same,% inhibition male (individual replicates) R3,[2]; [5],-15.7%
same,% inhibition male (individual replicates) R4,[2]; [6],6.2%
same,HitlevelM,[2]; [8],0
same,Activity,[2]; [9],0
c1ccc2sc(Sc3ncnc4sccc34)nc2c1 [TCMDC-125539],Selectivity ratio F,[1],340.93
same,inhibition at 2 µM,"[1]; 2µM, average of replicates, read-out: Average inhibition female (%)",60%
same,inhibition at 2 µM,"[1]; 2µM, replicate R1, read-out: % inhibition female (individual replicates) R1",39.3%
same,inhibition at 2 µM,"[1]; 2µM, replicate R2, read-out: % inhibition female (individual replicates) R2",92.2%
same,inhibition at 2 µM,"[1]; 2µM, replicate R3, read-out: % inhibition female (individual replicates) R3",35.1%
same,inhibition at 2 µM,"[1]; 2µM, replicate R4, read-out: % inhibition female (individual replicates) R4",73.5%
same,IC50,[1],290 nM
same,Selectivity Ratio M,[2],337.73
same,inhibition at 2 µM,"[2]; 2µM, average of replicates, read-out: Average inhibition male (%)",97.1%
same,inhibition at 2 µM,"[2]; 2µM, replicate R1, read-out: % inhibition male (individual replicates) R1",100%
same,inhibition at 2 µM,"[2]; 2µM, replicate R2, read-out: % inhibition male (individual replicates) R2",97.4%
same,inhibition at 2 µM,"[2]; 2µM, replicate R3, read-out: % inhibition male (individual replicates) R3",95.7%
same,inhibition at 2 µM,"[2]; 2µM, replicate R4, read-out: % inhibition male (individual replicates) R4",94.9%
same,IC50,[2],300 nM
CN1CCN(c2cc(-c3cccnc3)nc(-c3ccncc3)n2)CC1 [TCMDC-125593],% inhibition female (individual replicates) R1,[1]; [10],-2.3%
same,% inhibition female (individual replicates) R3,[1]; [11],-6.8%
same,% inhibition female (individual replicates) R4,[1]; [12],22.4%
same,Average inhibition female (%),[1]; [13],0.0475%
same,% inhibition male (individual replicates) R1,[2]; [10],-6.4%
same,% inhibition male (individual replicates) R3,[2]; [11],-15.1%
same,% inhibition male (individual replicates) R4,[2]; [12],5.5%
same,Average inhibition male (%),[2]; [13],-4.3%
Br.CCCCCCCCn1c2c(c(=N)c3c1CCC3)CCCC2 [TCMDC-125653],Average inhibition female (%),[1]; [3],10.3%
same,% inhibition female (individual replicates) R1,[1]; [4],8.6%
same,% inhibition female (individual replicates) R3,[1]; [5],3.3%
same,% inhibition female (individual replicates) R4,[1]; [6],15.0%
same,HitlevelF,[1]; [7],0
same,Average inhibition male (%),[2]; [3],42.3%
same,% inhibition male (individual replicates) R1,[2]; [4],42.8%
same,% inhibition male (individual replicates) R3,[2]; [5],52.3%
same,% inhibition male (individual replicates) R4,[2]; [6],40.6%
same,HitlevelM,[2]; [8],1
same,Activity,[2]; [9],0
